The results in this text go back to paper PMC12376241 (2025).

For experiment [1], the system named is LR1 (RNA, aptamer) GGGAGAGGAGGGAGAUAGAUAUCAAACUAAACACUUGAGGCUCGAUCUUUAUUGUAUUUACACCAUCUUGUGCAUCAUUUCGUGGAUGCCACAGGAC
Nature of the experiment: fluorescence polarization, displacement of Cy3-ODN. The conditions noted are these: 3 mM Mg2+, PBS, 0.005% Tween 20, 21 °C; for binding: 100 nM Cy3-ODN, 500 nM RNA, tested at 100 μM.

Experiment [2] deals with R3 (RNA, aptamer) GGGAGAGGAGGGAGAUAGAUAUCAAGUCGGAGGUAUGAGGCUCGAUCACGAAGAAGGCCGAUUGGGUUACCCUCCUUUUUCGUGGAUGCCACAGGAC
Briefly: ITC. The conditions noted are these: 300 μM ligand into 20 μM RNA.

The test system is the same in experiment [3]. Briefly: fluorescence polarization, displacement of Cy3-ODN. The conditions noted are these: 3 mM Mg2+, PBS, apparent, 0.005% Tween 20, 21 °C, 9-nt Cy3-ODN displaced, inhibitor vs response fit. (In fluorescence polarisation assays a small probe gives low polarisation when free and higher when bound to something large.)
Experiment [4] relates to R2 (RNA, aptamer) GGGAGAGGAGGGAGAUAGAUAUCAAGAGGUACGUAUGAGGCUCGAUCGGAAGGCUGGUCUAGGUCCCGUCCUGACCGUUUCGUGGAUGCCACAGGAC
Briefly: fluorescence polarization, displacement of Cy3-ODN. Conditions: 3 mM Mg2+, PBS, 0.005% Tween 20, 21 °C, 9-nt Cy3-ODN, 500 nM RNA, 0.1-1 mM compound.

The test system of experiment [5] is T1 (RNA, aptamer) GGGAGAGGAGGGAGAUAGAUAUCAACUAUCGCUUGUGAGGCUCGAUCUUUAUGUGCCCCUCCUUCAGGUUUGGCGUCUUUCGUGGAUGCCACAGGAC
Nature of the experiment: ITC. Conditions: 1 mM ligand into 50 μM RNA.

For experiment [6] the test system is unchanged. Nature of the experiment: fluorescence polarization, displacement of Cy3-ODN. The conditions noted are these: 3 mM Mg2+, PBS, 0.005% Tween 20, 21 °C.
Experiment [7] deals with HDB2 (RNA, aptamer) GGGAGAGGAGGGAGAUAGAUAUCAAACCGGCACCUGAGGCUCGAUCUUUGUUUGCAAAGGGCAUUGCAUCGAUGUGUUUUUCGUGGAUGCCACAGGAC
Nature of the experiment: ITC. Conditions: 3 mM Mg2+, PBS, 1 mM ligand into 20 μM RNA, ligand-into-buffer heat subtracted, legend also prints HDB1.

In experiment [8] the test system is LM1 (RNA, aptamer) GGGAGAGGAGGGAGAUAGAUAUCAACACUUGAACGUGAGGCUCGAUCUUUUUAGCUUUUUACUGCGGCGUUAACGGUUUUCGUGGAUGCCACAGGAC
Nature of the experiment: ITC. The conditions noted are these: 3 mM Mg2+, PBS, 1 mM ligand into 20 μM RNA, ligand-into-buffer heat subtracted.

Experiment [9] has as its system LR1 (RNA, aptamer) GGGAGAGGAGGGAGAUAGAUAUCAAACUAAACACUUGAGGCUCGAUCUUUAUUGUAUUUACACCAUCUUGUGCAUCAUUUCGUGGAUGCCACAGGAC
Briefly: ITC. The conditions noted are these: 3 mM Mg2+, PBS, 1 mM ligand into 20 μM RNA, ligand-into-buffer heat subtracted.

The subject of experiment [10] is HDB1 (RNA, aptamer) GGGAGAGGAGGGAGAUAGAUAUCAAACCCCAUCUUGAGGCUCGAUCGGCUCGUUUUUCAGGGAUAAGUAGAUUUAGUUUUUCGUGGAUGCCACAGGAC
Briefly: fluorescence polarization, displacement of Cy3-ODN. The conditions noted are these: 3 mM Mg2+, PBS, apparent, 0.005% Tween 20, 21 °C, shortened Cy3-labelled capture ODN displaced, inhibitor vs response fit.

Experiment [11] relates to LM1 (RNA, aptamer) GGGAGAGGAGGGAGAUAGAUAUCAACACUUGAACGUGAGGCUCGAUCUUUUUAGCUUUUUACUGCGGCGUUAACGGUUUUCGUGGAUGCCACAGGAC
Nature of the experiment: fluorescence polarization, displacement of Cy3-ODN. Conditions: 3 mM Mg2+, PBS, apparent, 0.005% Tween 20, 21 °C, shortened Cy3-labelled capture ODN displaced, inhibitor vs response fit.

In experiment [12] the test system is LM2 (RNA, aptamer) GGGAGAGGAGGGAGAUAGAUAUCAAACUAACAGUCUGAGGCUCGAUCUUUUGCAGAAACUUUCGUCUUUUGGCUAUCUUUCGUGGAUGCCACAGGAC
Nature of the experiment: fluorescence polarization, displacement of Cy3-ODN. The conditions noted are these: 3 mM Mg2+, PBS, 0.005% Tween 20, 21 °C, 100 nM Cy3-ODN, 500 nM RNA, 100 μM compound.

The subject of experiment [13] is LR2 (RNA, aptamer) GGGAGAGGAGGGAGAUAGAUAUCAAUUACCACGCUUGAGGCUCGAUCUUUUGCUUUGUCCAUCUAGUGUUGUCUGCGUUUCGUGGAUGCCACAGGAC
Nature of the experiment: fluorescence polarization, displacement of Cy3-ODN. Conditions: 3 mM Mg2+, PBS, 0.005% Tween 20, 21 °C, 100 nM Cy3-ODN, 500 nM RNA, 100 μM compound.

Experiment [14] relates to P7 (RNA, aptamer) GGGAGAGGAGGGAGAUAGAUAUCAACAGGAACGGUUGAGGCUCGAUCAGAUACCCCUCGCUACAAUGCGGCAUUGGGUUUCGUGGAUGCCACAGGAC
Briefly: fluorescence polarization, displacement of Cy3-ODN. Conditions: 3 mM Mg2+, PBS, 0.005% Tween 20, 21 °C, 9-nt Cy3-ODN, 500 nM RNA, 0.1-1 mM compound.

Experiment [15] relates to I5 (RNA, aptamer) GGGAGAGGAGGGAGAUAGAUAUCAAACGAACGGCAUGAGGCUCGAUCUACGUUACCCCUCUGACGUUGGCAUUUGUGUUUCGUGGAUGCCACAGGAC
Briefly: fluorescence polarization, displacement of Cy3-ODN. The conditions noted are these: 3 mM Mg2+, PBS, apparent, 0.005% Tween 20, 21 °C, 9-nt Cy3-ODN displaced, inhibitor vs response fit.

As to `CC1(C)S[C@@H]2[C@H](NC(=O)[C@H](N)c3ccccc3)C(=O)N2[C@H]1C(=O)O`, the binding result in experiment [1] is listed as “no”.

With `Cc1cc2nc3c(=O)[nH]c(=O)nc-3n(C[C@H](O)[C@H](O)[C@H](O)CO)c2cc1C`, the results for the Kd in experiment [2] and in experiment [3] were 9.88 ± 1.09 µM and ~ 5 μM, respectively. In addition, the binding entry in experiment [4] was “weak”.

For `Cn1c(=O)c2[nH]cnc2n(C)c1=O`, the Kd was 70.3 ± 6.33 µM in experiment [5] and ~ 54 μM in experiment [6] (apparent, 9-nt Cy3-ODN displaced, inhibitor vs response fit). In addition, the binding result in experiment [1] is “no”.

On to `Cn1c(=O)c2c(ncn2C)n(C)c1=O`, for which the binding result is “no” in [5] (no interaction) and “no” in experiment [6] (9-nt Cy3-ODN tracer, no binding observed).

For the compound `N=C(N)NCCC[C@H](N)C(=O)O`, the binding result in [1] is listed as “no”.

`NC[C@@H]1O[C@H](O[C@H]2[C@@H](O)[C@H](O[C@@H]3[C@@H](O)[C@H](N)C[C@H](N)[C@H]3O[C@H]3O[C@H](CN)[C@@H](O)[C@H](O)[C@H]3N)O[C@@H]2CO)[C@H](N)[C@@H](O)[C@@H]1O`: the Kd in [7] was 55.9 ± 3.57 µM; in [8], 38.0 ± 2.10 µM; in experiment [9] it was 34.7 ± 1.97 µM; in experiment [10], ~ 10 μM; in [11], ~ 4 μM; in experiment [1] (apparent, shortened Cy3-labelled capture ODN displaced, inhibitor vs response fit), ~ 3 μM. Also, the binding result in experiment [12] and in experiment [13] was “yes” in each case.

In turn, `NC[C@H]1O[C@H](O[C@H]2[C@H](O)[C@@H](O[C@H]3O[C@H](CO)[C@@H](O)[C@H](N)[C@H]3O)[C@H](N)C[C@@H]2N)[C@H](N)[C@@H](O)[C@@H]1O` gave a Kd in experiment [9] of 130.0 ± 30.9 µM.

Take `Nc1nc2c(ncn2[C@@H]2O[C@H](COP(=O)(O)OP(=O)(O)O)[C@@H](OP(=O)(O)OP(=O)(O)O)[C@H]2O)c(=O)[nH]1`: in [14], the binding result was “weak”.

For the compound `Nc1ncnc2c1ncn2[C@@H]1O[C@@H]2COP(=O)(O)O[C@H]2[C@H]1O`, the binding entry in [1] is listed as “no”.

As for `O=P(O)(O)O[C@H]1[C@@H](OP(=O)(O)O)[C@H](OP(=O)(O)O)[C@@H](OP(=O)(O)OP(=O)(O)O)[C@H](OP(=O)(O)O)[C@H]1OP(=O)(O)O`, the Kd in experiment [15] is reported as ~ 76 μM.
